The values that follow come from patent US12202818B2, “Compounds and methods for CD73 modulation and indications therefor” (Opna Bio SA, priority 2020, dated 2025).

For assay [1], the target named is T1, Human CD73 (amino acid residues 27-549) (Homo sapiens, UniProt P21589).
T1 construct: Human CD73 (amino acid residues 27-549); His tag (N); made in house; host or cells: E. coli
T1 sequence (P21589 27-549): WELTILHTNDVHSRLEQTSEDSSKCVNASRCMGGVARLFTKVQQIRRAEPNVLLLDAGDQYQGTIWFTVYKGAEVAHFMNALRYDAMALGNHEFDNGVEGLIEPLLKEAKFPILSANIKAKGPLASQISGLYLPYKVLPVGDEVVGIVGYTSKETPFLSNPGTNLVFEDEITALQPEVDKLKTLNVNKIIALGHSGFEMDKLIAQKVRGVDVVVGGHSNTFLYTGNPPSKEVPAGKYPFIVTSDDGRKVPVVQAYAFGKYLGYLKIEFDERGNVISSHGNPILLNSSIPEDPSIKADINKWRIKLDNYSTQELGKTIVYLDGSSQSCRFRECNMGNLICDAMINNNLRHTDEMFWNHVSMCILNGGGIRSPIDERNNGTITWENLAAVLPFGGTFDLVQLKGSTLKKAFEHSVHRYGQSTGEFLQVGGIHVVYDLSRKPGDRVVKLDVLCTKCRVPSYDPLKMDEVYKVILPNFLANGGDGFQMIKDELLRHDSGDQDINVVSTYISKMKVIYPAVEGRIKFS
Nature of the assay: CD73 enzymatic assay (luciferase-based indirect assay, CellTiter-Glo). It counts as biochemical. The following applies: 0.4 nM CD73, 150 μM AMP, 1 hour at room temperature. The procedure: CD73 enzymatic activity was measured in a luciferase-based indirect assay using CellTiter-Glo® system from Promega. The luciferase reaction in the presence of ATP is inhibited by AMP, a primary substrate of CD73. Addition of CD73 enzyme to the reaction converts AMP to adenosine, and release the inhibition, producing a luminescent signal. Inhibition of CD73 leads to the decrease of this luminescent signal.
Human CD73 (amino acid residues 27-549) with N-Terminal His tag was purified in E. coli. All the assay components were prepared in 50 mM HEPEs buffer (pH 7.4) with 0.01% Tween-20. The CD73 enzymatic assay was performed using 0.4 nM CD73 and 150 μM AMP. 9.5 μL of CD73 protein and 9.5 μL of AMP were added to the wells of a 384 well plate containing lpL of various concentrations of test compound or DMSO vehicle and incubated for 1 hour at room temperature. 16 wells containing CD73, AMP and 5% DMSO served as high control. 16 wells containing AMP and 5% DMSO served as low control. Enzymatic reaction was stopped and AMP level was measured indirectly by adding 5 μL of CellTiter-Glo® 2.0 reagent and 5 μL of ATP with a final concentration of 1 μM. Following incubation of the plate at room temperature for 30 minutes, luminescent signal was read on a Tecan plate reader. The percentage inhibition at individual concentrations relative to high and low controls was calculated. The data were analyzed by using nonlinear regression to generate IC50 values.

The target of the next assay is T2, human CD73 (Homo sapiens, UniProt P21589).
T2 construct: expressed in transfected cells
T2 sequence (P21589 27-549): T1 sequence (P21589 27-549)
The experiment in a line: Inhibitor activity against CD73 in cell based assay (CD73 expressing CHO-K1 cells). The settings on record: CHO-K1 cells expressing human CD73, 150 μM AMP, 4 hours of incubation; read-out: CHO-K1 CELL_VARIANT: CD73 IC50. The procedure: Determine Inhibitor Activity Against CD73 in Cell Based Assay
CD73 expressing CHO-K1 cell clones were generated upon stable transfection of a plasmid expressing human CD73 under the control of CMV promoter. Cells were selected in Ham's F-12K (Kaighn's) media supplemented with 10% fetal bovine serum and 1 mg/ml G418 at 37° C. in a humidified incubator supplied with 5% CO2. The assays were performed as follows. Cells were seeded in a 96 well plate in 50 μL of culture media at a density of 1×10^4 per well. Compound at a maximal concentration of 5 mM was serially diluted 1:3 in DMSO for a total of 8 point titration. A 2 μL aliquot of each dilution point was added to […] culture media and 25 µL was added to each well, providing 10 μM compound at the maximum concentration point. AMP was diluted in culture media and 25 μL was added to each well with a final concentration of 150 μM. 4 wells containing 0.2% DMSO treated cells and AMP served as high controls and 4 wells containing media only with 0.2% DMSO and AMP served as low controls. After 4 hours of incubation, 20 μL of the supernatant was transferred to a 384 well plate. AMP level in supernatant was measured indirectly by adding 5 μL of CellTiter-Glo® 2.0 reagent and 5 μL of ATP with a final concentration of 1 μM. Following incubation of plate at room temperature for 30 minutes, luminescent signal was read on a Tecan plate reader. The percentage inhibition at individual concentrations relative to high and low controls was calculated. The data were analyzed by using nonlinear regression to generate ICso values.

Consider `Cc1nn(C)c(C)c1-c1cc(O[C@@H]2CCN(c3cn[nH]c(=O)c3Cl)C2)c(F)cn1` [P-0117, (R)-4-chloro-5-(3-((5-fluoro-2-(1,3,5-trimethyl-1H-pyrazol-4-yl)pyridin-4-yl)oxy)pyrrolidin-1-yl)pyridazin-3(2H)-one], for which the IC50 (in assay [1]; on human CD73) was 0.001 to 10 µM each time.
Take `CC(C)c1cc(Nc2cccnc2O[C@@H]2CCN(c3cn[nH]c(=O)c3Cl)C2)n(C)n1` [P-0109, (R)-4-chloro-5-(3-((3-((3-isopropyl-1-methyl-1H-pyrazol-5-yl)amino)pyridin-2-yl)oxy)pyrrolidin-1-yl)pyridazin-3(2H)-one]: the IC50 (in assay [1]; on human CD73) was 0.001 to 10 µM throughout.
As to `Cc1noc(C)c1-c1cc(O[C@@H]2CCN(c3cnn(CC(O)CO)c(=O)c3Cl)C2)ncn1` (stereo partly drawn) [P-0140, 4-chloro-2-(2,3-dihydroxypropyl)-5-((R)-3-((6-(3,5-dimethylisoxazol-4-yl)pyrimidin-4-yl)oxy)pyrrolidin-1-yl)pyridazin-3(2H)-one], the IC50 (in assay [1]; on human CD73) was 0.001 to 10 µM throughout.
With `Cc1nn(CC(C)(C)O)c(C)c1-c1ccnc(O[C@@H]2CCN(c3cn[nH]c(=O)c3Cl)C2)c1` [P-0038, (R)-4-chloro-5-(3-((4-(1-(2-hydroxy-2-methylpropyl)-3,5-dimethyl-1H-pyrazol-4-yl)pyridin-2-yl)oxy)pyrrolidin-1-yl)pyridazin-3(2H)-one], the IC50 (in assay [1]; at human CD73) was 0.001 to 10 µM throughout.
As to `Cc1nn(CCN2CCCC2)c(C)c1-c1cc(F)nc(O[C@@H]2CCN(c3cn[nH]c(=O)c3Cl)C2)c1` [P-0159, (R)-4-chloro-5-(3-((4-(3,5-dimethyl-1-(2-(pyrrolidin-1-yl)ethyl)-1H-pyrazol-4-yl)-6-fluoropyridin-2-yl)oxy)pyrrolidin-1-yl)pyridazin-3(2H)-one], the IC50 (in assay [1]; at human CD73) was 0.001 to 10 µM in each case.
With `CC(C)N1CCN(c2ccnc(O[C@@H]3CCN(c4cn[nH]c(=O)c4Cl)C3)c2)CC1` [P-0003, (R)-4-chloro-5-(3-((4-(4-isopropylpiperazin-1-yl)pyridin-2-yl)oxy)pyrrolidin-1-yl)pyridazin-3(2H)-one], the IC50 (in assay [1]; at human CD73) was 0.001 to 10 µM throughout.
As to `Cc1nn(CC2CCCO2)c(C)c1-c1ccnc(O[C@@H]2CCN(c3cn[nH]c(=O)c3Cl)C2)c1` (stereo partly drawn) [P-0042, 4-chloro-5-((3R)-3-((4-(3,5-dimethyl-1-((tetrahydrofuran-2-yl)methyl)-1H-pyrazol-4-yl)pyridin-2-yl)oxy)pyrrolidin-1-yl)pyridazin-3(2H)-one], the IC50 (in assay [1]; at human CD73) was 0.001 to 10 µM each time.
Regarding `Cc1nn(C)c(C)c1-c1ccnc(O[C@@H]2CCN(c3cn[nH]c(=O)c3C#N)C2)c1` [P-0114, (R)-3-oxo-5-(3-((4-(1,3,5-trimethyl-1H-pyrazol-4-yl)pyridin-2-yl)oxy)pyrrolidin-1-yl)-2,3-dihydropyridazine-4-carbonitrile], the IC50 (in assay [1]; on human CD73) was 0.001 to 10 µM throughout.
For the compound `O=c1[nH]ncc(N2CC[C@@H](Oc3cc(C4=CCNC4)ccn3)C2)c1Cl` [P-0032, (R)-4-chloro-5-(3-((4-(2,5-dihydro-1H-pyrrol-3-yl)pyridin-2-yl)oxy)pyrrolidin-1-yl)pyridazin-3(2H)-one], the IC50 (in assay [1]; at human CD73) was 0.001 to 10 µM each time.
For `Cc1noc(C)c1-c1cc(O[C@H]2CN(c3cn[nH]c(=O)c3Cl)C[C@@H]2F)ncn1` [P-0148, 4-chloro-5-((3S,4S)-3-((6-(3,5-dimethylisoxazol-4-yl)pyrimidin-4-yl)oxy)-4-fluoropyrrolidin-1-yl)pyridazin-3(2H)-one], the IC50 (in assay [1]; on human CD73) was 0.001 to 10 µM throughout.
For `Cc1nn(C2COC2)c(C)c1-c1cc(O[C@@H]2CCN(c3cnn(CCO)c(=O)c3Cl)C2)ncc1F` [P-0020, (R)-4-chloro-5-(3-((4-(3,5-dimethyl-1-(oxetan-3-yl)-1H-pyrazol-4-yl)-5-fluoropyridin-2-yl)oxy)pyrrolidin-1-yl)-2-(2-hydroxyethyl)pyridazin-3(2H)-one], the IC50 (in assay [1]; on human CD73) was 0.001 to 10 µM in each case.
With `Cc1nn(C)c(C)c1-c1cc(F)nc(O[C@H]2CN(c3cnn(CCO)c(=O)c3Cl)C[C@@H]2F)c1` [P-0190, 4-chloro-5-((3S,4S)-3-fluoro-4-((6-fluoro-4-(1,3,5-trimethyl-1H-pyrazol-4-yl)pyridin-2-yl)oxy)pyrrolidin-1-yl)-2-(2-hydroxyethyl)pyridazin-3(2H)-one], the IC50 (in assay [1]; at human CD73) was 0.001 to 10 µM in each case.
For `NC1CCC(c2ccnc(O[C@@H]3CCN(c4cn[nH]c(=O)c4Cl)C3)c2)CC1` (stereo partly drawn) [P-0059, (R)-5-(3-((4-(4-aminocyclohexyl)pyridin-2-yl)oxy)pyrrolidin-1-yl)-4-chloropyridazin-3(2H)-one], the IC50 (in assay [1]; on human CD73) was 0.001 to 10 µM in each case.
For the compound `Cc1noc(C)c1-c1cc(O[C@@H]2CCN(c3cn[nH]c(=O)c3Cl)C2)c(F)cn1` [P-0118, (R)-4-chloro-5-(3-((2-(3,5-dimethylisoxazol-4-yl)-5-fluoropyridin-4-yl)oxy)pyrrolidin-1-yl)pyridazin-3(2H)-one], the IC50 (in assay [1]; on human CD73) was 0.001 to 10 µM each time.
With `O=c1[nH]ncc(N2CC[C@@H](Oc3cc(C4=CCOCC4)ccn3)C2)c1Cl` [P-0078, (R)-4-chloro-5-(3-((4-(3,6-dihydro-2H-pyran-4-yl)pyridin-2-yl)oxy)pyrrolidin-1-yl)pyridazin-3(2H)-one], the IC50 (in assay [1]; at human CD73) was 0.001 to 10 µM each time.
`CC(=O)Nc1ccc(-c2ccnc(O[C@@H]3CCN(c4cn[nH]c(=O)c4Cl)C3)c2)c(F)c1` [P-0213, (R)-N-(4-(2-((1-(5-chloro-6-oxo-1,6-dihydropyridazin-4-yl)pyrrolidin-3-yl)oxy)pyridin-4-yl)-3-fluorophenyl)acetamide]: the IC50 (in assay [1]; on human CD73) was 0.001 to 10 µM each time.
On to `Cc1noc(C)c1-c1cc(O[C@@H]2CCN(c3cn[nH]c(=O)c3Cl)C2)ncn1` [P-0182, (R)-4-chloro-5-(3-((6-(3,5-dimethylisoxazol-4-yl)pyrimidin-4-yl)oxy)pyrrolidin-1-yl)pyridazin-3(2H)-one], for which the IC50 (in assay [1]; on human CD73) was 0.001 to 10 µM throughout.
For `Cc1n[nH]c(C)c1-c1cc(F)nc(O[C@@H]2CCN(c3cn[nH]c(=O)c3Cl)C2)c1` [P-0193, (R)-4-chloro-5-(3-((4-(3,5-dimethyl-1H-pyrazol-4-yl)-6-fluoropyridin-2-yl)oxy)pyrrolidin-1-yl)pyridazin-3(2H)-one], the IC50 (in assay [1]; on human CD73) was 0.001 to 10 µM each time.
Take `CC(C)c1cc(Nc2cccnc2O[C@@H]2CCN(c3cnn(CCO)c(=O)c3Cl)C2)n(C)n1` [P-0101, (R)-4-chloro-2-(2-hydroxyethyl)-5-(3-((3-((3-isopropyl-1-methyl-1H-pyrazol-5-yl)amino)pyridin-2-yl)oxy)pyrrolidin-1-yl)pyridazin-3(2H)-one]: the values for the IC50 (in assay [1]; at human CD73) were 0.001 to 10 µM and 10 to 100 µM, respectively.

A word on the IC50: it is the point on the concentration scale where inhibition reaches its midpoint.
